What is called IC50 is the concentration that inhibits the measured activity by half.

SMILES strings stand for the structures.

Data on one compound can be found in patent US10399972B2, “Tricyclic compounds as inhibitors of mutant IDH enzymes” (Merck Sharp & Dohme Corp., priority 2015, dated 2019).

The target in the assay is R132H mutant IDH1 enzyme (Homo sapiens (Human), UniProt O75874, R132H). As to the kind of experiment: R132H IDH1 Enzymatic Assay. The format is biochemical. Conditions: 1.5 nM final, 30 min preincubation, 60 min reaction, Kinase-GLO luminescence.
Sequence of R132H mutant IDH1 enzyme (O75874 whole entry R132H): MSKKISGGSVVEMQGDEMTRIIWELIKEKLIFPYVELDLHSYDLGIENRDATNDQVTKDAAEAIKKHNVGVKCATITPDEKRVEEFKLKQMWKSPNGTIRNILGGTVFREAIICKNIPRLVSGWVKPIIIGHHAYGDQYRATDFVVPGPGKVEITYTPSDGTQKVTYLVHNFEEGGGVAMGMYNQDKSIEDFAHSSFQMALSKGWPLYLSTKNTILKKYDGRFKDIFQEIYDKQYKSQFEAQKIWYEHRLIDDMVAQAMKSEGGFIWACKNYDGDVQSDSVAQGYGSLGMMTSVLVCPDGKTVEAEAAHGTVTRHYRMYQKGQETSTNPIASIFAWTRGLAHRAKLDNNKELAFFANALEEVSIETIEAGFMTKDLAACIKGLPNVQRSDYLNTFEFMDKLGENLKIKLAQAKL

`O=C(C1CCN(CC(F)(F)F)CC1)N1Cc2cc(F)cnc2Nc2cc(F)ccc21` [Example 72, (3,9-Difluoro-5,11-dihydro-6H-benzo[b]pyrido[2,3-e][1,4]diazepin-6-yl)(1-(2,2,2-trifluoroethyl)piperidin-4-yl)methanone]: half-maximal inhibition (IC50) required 160 nM.
